{"source": "patent US8883183B2", "about": "“Medical devices incorporating collagen inhibitors” (Wake Forest University Health Sciences, priority 2008, dated 2014)", "key": {"[1]": {"assay": "In vitro elution of halofuginone from coated Vicryl sutures into PBS", "format": "physicochemical", "details": "UV spectroscopy at 243 nm", "procedure": "To determine halofuginone elution, an in vitro elution study was performed. The release of halofuginone from coated Vicryl sutures into phosphate buffered saline (PBS) was used to estimate kinetics of drug release in vivo. A 2.5 cm segment of HF—Br coated Vicryl was placed in 1.5 mL of PBS and incubated at 37° C. At 5, 15, 30, and 45 minutes and 1, 2, 4, 8, 24, 48, 72, and 96 hours the segment was transferred into a new 1.5 mL aliquot of PBS, and the amount of halofuginone from the previous aliquot was measured with UV spectrophotometry at 243 nm. Data from UV spectrophotometry indicated a rapid release of HF—Br into PBS in vitro (FIG. 3). It was approximated that 90% of the total drug mass was released in 30 minutes and that the drug was nearly eliminated in 2 hours."}, "[2]": {"tested_on": "full thickness dermal incisions", "assay": "Rat dorsal full thickness dermal incision wound healing model", "format": "in vivo", "text": "A total of nine animals underwent surgery: three controls and six treatment animals. On each control animal four full thickness dermal incisions were made on the dorsum. The two anterior incisions were closed with uncoated 3-0 Vicryl and N-butyl-2-cyanoacrylate glue; the posterior incisions were closed with Vicryl alone. In the experimental animals four full thickness wounds were made on the dorsum; the two anterior incisions were closed uncoated Vicryl and a mixture of HF—Br and N-butyl-2-cyanoacrylate (0.5 cc of HF—Br was added to 0.5 cc of N-butyl cyanoacrylate glue) was applied topically to the closed wound. The two posterior wounds were closed with HF—Br coated 3-0 Vicryl. Two treatment animals and one control animal were then euthanized at 2, 6, and 12 weeks and soft tissue specimens were taken for analysis.\nSoft tissue samples were harvested, embedded in paraffin and sectioned (5 μm). Sections were stained with Hematoxylin and Eosin (H&E) and Masson's Trichrome. Inflammation scores were recorded according to the method of Storch (Surgical Infections. 2002; 3: 89-98). The area of scar tissue deposition was approximated and calculated with light microscopy and a Zeiss™ digital image capture software system.\nTo evaluate levels of newly formed collagen, tissue samples were digested in 1M NaCl in 0.05M Tris. Salt soluble collagen was then bound with a Sircol™ dye detection system and content was measured with UV spectrophotometry at […]. Percent tissue masses of salt soluble collagen were higher in all week 2 samples.\nTensile strength of dermal wound tissue specimens is assessed by measuring the breaking point with a tensometer. Tissue specimens are harvested and analyzed immediately after animals are sacrificed. The specimens are attached to the tensometer and pressure is applied until the wound breaks. This breaking pressure is recorded as tensile strength.\nSkin samples were harvested so that the plane of the scar would be perpendicular to the direction of force applied. Samples were frozen, re-thawed, and secured by clamps in an tensometer (Instron™ Norwood, Mass.). Force was then applied until samples broke. Ultimate tensile load, percent elongation, and stiffness were then calculated for three control and three HF—Br treated samples at 2 and 12 weeks. Averages were reported. Average stiffness, ultimate tensile load, and percent elongation for all tissue samples increased from 2 to 12 weeks (FIG. 9)."}, "[3]": {"tested_on": "alpha 1 collagen gene expression", "assay": "Real time qPCR of alpha 1 collagen gene expression in wound border skin", "format": "in vivo, rat", "details": "wounds treated topically, suture only animals", "text": "To determine alpha 1 collagen gene expression (in suture only animals), 2 mm punch biopsies of skin were taken at the border of wounds adjacent to suture material. Samples were flash frozen, pulverized, and RNA was extracted with Trizol reagent. Real time qPCR was employed to measure gene expression using rat 1-alpha-2 collagen ampliset. Relative quantities of alpha 1 collagen gene expression were normalized with expression levels of 18S and GAPDH RNA. These values were then divided by the relative quantity of alpha 1 collagen gene expression in normal skin."}, "paranasal sinus wounds": {"tested_on": "paranasal sinus wounds", "assay": "Rat model of paranasal sinus surgery, HF-coated cellulose pack", "format": "in vivo", "details": "topical administration", "procedure": "Topical application of a halofuginone/cellulose derivative packing was tested for the prevention of scar tissue formation in the paranasal sinuses of a rat. The paired, anatomically identical paranasal sinuses of the rat allow one side to serve as a control and the other to serve as experimental. The control sinus was packed with an uncoated cellulose derivative packing material (Merocel). The other (experimental) sinus cavity was packed with a halofuginone bromide coated cellulose derivative compound packing material. A second set of animals underwent paranasal sinus surgery and no packing material of any kind was placed. Both packing preparations provide adequate homeostasis and require removal, as in the human clinical scenario. The surgical wound was closed using absorbable subcuticular sutures. Sinus surgery was performed in the rat and packs placed for 5 days. Sinus specimens were harvested and analyzed.\nIn vivo elution studies were performed on packs removed 5 days post-operatively, placed in 10 mL PBS for 8 hrs, and 300 uL aliquot placed in spectrophotometer (blanked with a control pack removed post-operatively)."}}, "data": [{"smiles": "O=C(CC1NCCCC1O)Cn1cnc2cc(Br)c(Cl)cc2c1=O", "note": "(centres unmarked) [HF—Br, 7-bromo-6-chloro-3-[3-(3-hydroxy-2-piperidinyl)-2-oxopropyl]-4(3H)]", "values": [{"measurement": "release of HF—Br into PBS in vitro", "setting": "[1]", "value": "rapid drug release"}, {"measurement": "inflammation scores", "setting": "[2]; H&E, weeks 2, 6 and 12, vs controls", "value": "consistently lower"}, {"measurement": "cross sectional areas of collagen deposition (scar)", "setting": "[2]; Masson's trichrome, vs controls", "value": "consistently smaller"}, {"measurement": "salt soluble collagen levels", "setting": "[2]; Sircol assay, treated vs control, each time point", "value": "No significant difference"}, {"measurement": "difference in collagen staining between treated and control", "setting": "[2]; Week 2", "value": 2.7, "unit": "fold"}, {"measurement": "wound area approximation", "setting": "[2]; Week 2", "value": "322,107 μm^2"}, {"measurement": "gross appearance of wounds", "setting": "[2]; later time points, vs control", "value": "No significant difference in appearance"}, {"measurement": "stiffness, ultimate tensile load and percent elongation (tensile strength)", "setting": "[2]; rat, in vivo", "value": "No significant difference"}, {"measurement": "gross appearance of wounds (erythema and induration)", "setting": "[2]; two weeks, vs control wounds", "value": "More erythema and induration were visible in control wounds"}, {"measurement": "1-alpha-2 collagen gene expression", "setting": "[3]", "value": "inhibited"}, {"measurement": "post-operative scar formation", "setting": "paranasal sinus wounds", "value": "reduced post-operative scar formation"}]}]}
